Reference: US10562850B2, “Human plasma kallikrein inhibitors” (priority 2015, dated 2020)

Target: human plasma kallikrein (Homo sapiens (Human), UniProt P03952)
Assay: Plasma Kallikrein Activity Assay (chromogenic substrate S2302)
Assay type: biochemical
Conditions: 2 nM kallikrein, 80 μM S2302, 30° C., pH 7.8; Cheng-Prusoff
Method in brief: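 2 nM human plasma kallikrein incubated at 30° C with 80 μM S2302 and increasing compound concentrations in 50 mM Tris-HCl pH 7.8, 200 mM NaCl, 2.5 mM CaCl2. Activity read as absorbance change at 405 nm; four-parameter logistic fit, Ki by Cheng-Prusoff.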

human plasma kallikrein, sequence (P03952 391-638): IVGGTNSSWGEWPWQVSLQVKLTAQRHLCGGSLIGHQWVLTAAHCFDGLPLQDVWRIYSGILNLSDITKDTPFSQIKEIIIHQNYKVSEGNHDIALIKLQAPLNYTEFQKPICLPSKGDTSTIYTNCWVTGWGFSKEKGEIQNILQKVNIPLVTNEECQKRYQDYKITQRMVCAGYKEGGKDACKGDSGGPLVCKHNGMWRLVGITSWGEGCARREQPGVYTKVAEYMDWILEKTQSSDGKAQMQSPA
human plasma kallikrein, sequence (P03952 20-390 partner): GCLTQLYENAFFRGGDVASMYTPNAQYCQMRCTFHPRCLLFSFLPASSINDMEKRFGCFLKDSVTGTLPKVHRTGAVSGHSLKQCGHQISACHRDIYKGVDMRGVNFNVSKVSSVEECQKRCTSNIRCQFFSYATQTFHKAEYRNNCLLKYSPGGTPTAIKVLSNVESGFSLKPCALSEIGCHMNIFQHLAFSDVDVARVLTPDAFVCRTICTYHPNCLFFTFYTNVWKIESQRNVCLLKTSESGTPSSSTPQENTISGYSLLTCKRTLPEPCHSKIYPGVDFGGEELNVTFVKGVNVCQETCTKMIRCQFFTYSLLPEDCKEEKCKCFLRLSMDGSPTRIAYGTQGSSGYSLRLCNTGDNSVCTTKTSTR

SMILES | Ki [nM]
N#Cc1cccc(C(N)(CCC2CC2)c2ccc(F)c(NC(=O)[C@H]3C[C@](O)(c4ccccc4)CN3C(=O)Nc3ccc(Cl)cc3)c2)c1 (stereo partly drawn) [Compound 30a, (2R,4S)-N2-(5-((+)-1-amino-1-(3-cyanophenyl)-3-cyclopropylpropyl)-2-fluorophenyl)-N1-(4-chlorophenyl)-4-hydroxy-4-phenylpyrrolidine-1,2-dicarboxamide] | < 50
N#Cc1cccc(C(N)(CCC2CC2)c2ccc(F)c(NC(=O)[C@H]3C[C@@H](O)CN3C(=O)Nc3ccc(Cl)cn3)c2)c1 (stereo partly drawn) [Compound 14h, (2R,4R)-N2-(5-(1-amino-1-(3-cyanophenyl)-3-cyclopropylpropyl)-2-fluorophenyl)-N1-(5-chloropyridin-2-yl)-4-hydroxypyrrolidine-1,2-dicarboxamide] | < 50
CO[C@H]1C[C@@H](C(=O)Nc2cc(C(N)(CCC3CC3)c3cccc(C#N)c3)ccc2F)N(C(=O)Nc2ccc(Cl)cc2)C1 (stereo partly drawn) [Compound 11e, (2S,4S)-N2-(5-((−)-1-amino-1-(3-cyanophenyl)-3-cyclopropylpropyl)-2-fluorophenyl)-N1-(4-chlorophenyl)-4-methoxypyrrolidine-1,2-dicarboxamide] | > 100
O=C(Nc1cc(C(NCC2CC2)c2ccccc2)ccc1F)[C@H]1C[C@@H](O)CN1C(=O)Nc1ccc(Cl)cc1 (stereo partly drawn) [Compound 3a, (2R,4R)-N1-(4-chlorophenyl)-N2-(5-((+)-(cyclopropylmethylamino)(phenyl)methyl)-2-fluorophenyl)-4-hydroxypyrrolidine-1,2-dicarboxamide] | 50 to 100
CC(C)(C)[S@@+]([O-])NC(CCC1CC1)(c1ccncc1)c1ccc(F)c(NC(=O)[C@H]2C[C@@H](O)CN2C(=O)Nc2ccc(Cl)cc2)c1 (stereo partly drawn) [Compound 68a, (2R,4R)-N1-(4-chlorophenyl)-N2-(5-(3-cyclopropyl-1-((R)-1,1-dimethylethylsulfinamido)-1-(pyridin-4-yl)propyl)-2-fluorophenyl)-4-hydroxypyrrolidine-1,2-dicarboxamide] | < 50
CNC(CCC1CC1)(c1ccncc1)c1ccc(F)c(NC(=O)[C@H]2C[C@](O)(c3ccccc3)CN2C(=O)Nc2ccc(Cl)cn2)c1 (stereo partly drawn) [Compound 41a, (2R,4S)-N1-(5-chloropyridin-2-yl)-N2-(5-((+)-3-cyclopropyl-1-(methylamino)-1-(pyridin-4-yl)propyl)-2-fluorophenyl)-4-hydroxy-4-phenylpyrrolidine-1,2-dicarboxamide] | < 50
N#Cc1cccc(C(N)(CCC2CC2)c2ccc(F)c(NC(=O)[C@H]3CC(=O)CN3C(=O)Nc3ccc(Cl)cc3)c2)c1 (stereo partly drawn) [Compound 20b, (R)-N2-(5-(1-amino-1-(3-cyanophenyl)-3-cyclopropylpropyl)-2-fluorophenyl)-N1-(4-chlorophenyl)-4-oxopyrrolidine-1,2-dicarboxamide] | > 100
N#Cc1cccc(C(N)(CCC2CC2)c2ccc(F)c(NC(=O)[C@@H]3C[C@@H](O)CN3C(=O)Nc3ccc(Cl)cc3)c2)c1 (stereo partly drawn) [Compound 5e, (2S,4R)-N2-(5-((−)-1-amino-1-(3-cyanophenyl)-3-cyclopropylpropyl)-2-fluorophenyl)-N1-(4-chlorophenyl)-4-hydroxypyrrolidine-1,2-dicarboxamide] | > 100
N#Cc1ccc(C(N)(CCC2CC2)c2ccc(F)c(NC(=O)[C@H]3C[C@@H](O)CN3C(=O)Nc3ccc(Cl)cc3)c2)cc1 (stereo partly drawn) [Compound 63g, (2R,4R)-N2-(5-((+)-1-amino-1-(4-cyanophenyl)-3-cyclopropylpropyl)-2-fluorophenyl)-N1-(4-chlorophenyl)-4-hydroxypyrrolidine-1,2-dicarboxamide] | 50 to 100
N#Cc1cccc(C(N)(CCC2CC2)c2ccc(F)c(NC(=O)[C@H]3C[C@@H](O)CN3C(=O)Nc3ccc(Cl)cc3)c2)c1 (stereo partly drawn) [Compound 4g, (2R,4R)-N2-(5-((+)-1-amino-1-(3-cyanophenyl)-3-cyclopropylpropyl)-2-fluorophenyl)-N1-(4-chlorophenyl)-4-hydroxypyrrolidine-1,2-dicarboxamide] | 50 to 100
N#Cc1cccc([C@@H](NCC2CC2)c2ccc(F)c(NC(=O)[C@H]3C[C@@H](O)CN3C(=O)Nc3ccc(Cl)cc3)c2)c1 [Compound 60a, (2R,4R)-N1-(4-chlorophenyl)-N2-(5-((R)-(3-cyanophenyl)(cyclopropylmethylamino)methyl)-2-fluorophenyl)-4-hydroxypyrrolidine-1,2-dicarboxamide] | > 100
CO[C@]1(c2ccccc2)C[C@H](C(=O)Nc2cc(C(N)(CCC3CC3)c3ccccn3)ccc2F)N(C(=O)Nc2ccc(Cl)cc2)C1 (stereo partly drawn) [Compound 34d, (2R,4S)-N2-(5-((+)-1-amino-3-cyclopropyl-1-(pyridin-2-yl)propyl)-2-fluorophenyl)-N1-(4-chlorophenyl)-4-methoxy-4-phenylpyrrolidine-1,2-dicarboxamide] | < 50
N#Cc1cccc(C(N)(CCC2CC2)c2ccc(F)c(NC(=O)[C@H]3C[C@@H](O)CN3C(=O)Nc3ccc(Br)cc3)c2)c1 (stereo partly drawn) [Compound 23b, (2R,4R)-N2-(5-((+)-1-amino-1-(3-cyanophenyl)-3-cyclopropylpropyl)-2-fluorophenyl)-N1-(4-bromophenyl)-4-hydroxypyrrolidine-1,2-dicarboxamide] | 50 to 100
CCO[C@@H]1C[C@H](C(=O)Nc2cc(C(CCC3CC3)(NS(C)(=O)=O)c3ccncc3)ccc2F)N(C(=O)Nc2ccc(Cl)cn2)C1 (stereo partly drawn) [Compound 55a, (2R,4R)-N1-(5-chloropyridin-2-yl)-N2-(5-((+)-3-cyclopropyl-1-(methylsulfonamido)-1-(pyridin-4-yl)propyl)-2-fluorophenyl)-4-ethoxypyrrolidine-1,2-dicarboxamide] | < 50
NC(CCC1CC1)(c1ccc(F)c(NC(=O)[C@H]2C[C@@H](O)CN2C(=O)Nc2ccc(Cl)cn2)c1)c1ccccn1 (stereo partly drawn) [Compound 62c, (2R,4R)-N2-(5-((+)-1-amino-3-cyclopropyl-1-(pyridin-2-yl)propyl)-2-fluorophenyl)-N1-(5-chloropyridin-2-yl)-4-hydroxypyrrolidine-1,2-dicarboxamide] | < 50
N#Cc1cccc(C(N)(CCC2CC2)c2ccc(F)c(NC(=O)[C@H]3C[C@@H](O)CN3C(=O)Nc3ccc(N)cc3)c2)c1 (stereo partly drawn) [Compound 28b, (2R,4R)-N2-(5-((+)-1-amino-1-(3-cyanophenyl)-3-cyclopropylpropyl)-2-fluorophenyl)-N1-(4-aminophenyl)-4-hydroxypyrrolidine-1,2-dicarboxamide] | > 100
CO[C@]1(c2ccccc2)C[C@H](C(=O)Nc2cc(C(N)(CCC3CC3)c3ccccn3)ccc2F)N(C(=O)Nc2ccc(Cl)cn2)C1 (stereo partly drawn) [Compound 35a, (2R,4S)-N2-(5-((+)-1-amino-3-cyclopropyl-1-(pyridin-2-yl)propyl)-2-fluorophenyl)-N1-(5-chloropyridin-2-yl)-4-methoxy-4-phenylpyrrolidine-1,2-dicarboxamide] | 50 to 100
CO[C@@H]1C[C@@H](C(=O)Nc2cc(C(CCC3CC3)(N[S@+]([O-])C(C)(C)C)c3cccc(C#N)c3)ccc2F)N(C(=O)N(C)c2ccc(Cl)cc2)C1 (stereo partly drawn) [Compound 6d, (2S,4R)-N1-(4-chlorophenyl)-N2-(5-(1-(3-cyanophenyl)-3-cyclopropyl-1-((R)-1,1-dimethylethylsulfinamido)propyl)-2-fluorophenyl)-4-methoxy-N1-methylpyrrolidine-1,2-dicarboxamide] | > 100
